Activity calls are given as the source filed them. The rule behind the calls is not given here.
Target: Ubiquitin-conjugating enzyme E2 N (Homo sapiens) (UniProt P61088)
Test: UBE2N binders by NMR, biophysical, purified protein (AID 1552)
Conditions: NMR binding to purified UBE2N

Sequence of Ubiquitin-conjugating enzyme E2 N (Homo sapiens) (P61088 whole entry, looked up): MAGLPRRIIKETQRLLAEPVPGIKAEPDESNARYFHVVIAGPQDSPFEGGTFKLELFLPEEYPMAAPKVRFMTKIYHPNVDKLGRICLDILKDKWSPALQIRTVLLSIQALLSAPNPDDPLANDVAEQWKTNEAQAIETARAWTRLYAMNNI

| Compound | Kd |
| --- | --- |
| NC(=O)C1CCN(C(=S)c2cccs2)CC1 | > 4 mM (inactive) |
| Cc1nn(C)c(Cl)c1C(O)c1c(C)nn(C)c1Cl | > 4 mM (inactive) |
| O=C(c1nc2ccccc2s1)N1CCSCC1 | > 4 mM (inactive) |
| Cc1cc(=O)cc(C)n1NC(N)=S | > 4 mM (inactive) |
| CC[C@@]1(O)C(=O)OCc2c1cc1n(c2=O)Cc2cc3ccccc3nc2-1 | > 4 mM (inactive) |
| CC(=O)NC1(NC(C)=O)CCN(C)CC1 | > 4 mM (inactive) |
| CN1CCN(C(=S)NC(=O)c2ccn(C)n2)CC1 | > 4 mM (inactive) |
| O=c1c(O)c(-c2ccccc2)oc2ccc3occc3c12 | > 4 mM (inactive) |
| Cc1cc2nc(SCC(=O)O)nc(C)c2cc1C | > 4 mM (inactive) |
| CCOc1ccc(N2C(=O)CCC2=O)cc1 | > 4 mM (inactive) |
| Cc1cc(C(=O)Nc2ccc3c(c2)OCCO3)c(C)o1 | > 4 mM (inactive) |
| COc1cc(C(=O)O[C@H]2CC[C@@]3(C)[C@@H]4CC[C@H]5[C@]6(O)C[C@H](O)[C@@]7(O)[C@@H](CN8C[C@@H](C)CC[C@H]8[C@@]7(C)O)[C@]6(O)C[C@@]53OC24O)cc(OC)c1OC | > 4 mM (inactive) |
| O=C1NCCCC1C(=O)N/N=C/c1ccccc1 (centres undefined) | > 4 mM (inactive) |
| O=C1CCC(=O)N1c1ccc(F)cc1 | > 4 mM (inactive) |
| NC(=O)CSc1ncnc2ccccc12 | > 4 mM (inactive) |
| O=C1NC(=O)C(=Cc2ccccc2)C(=O)N1 | > 4 mM (inactive) |
| COC(=O)c1cccc2cc[nH]c12 | > 4 mM (inactive) |
| CC(C)(O)P(C)(=O)c1ccccc1 (centres undefined) | > 4 mM (inactive) |
| CN(Cc1nc2ccccc2n1C)S(C)(=O)=O | > 4 mM (inactive) |
| COc1cc(OC)cc(-c2nc(N)n[nH]2)c1 | > 4 mM (inactive) |
| Nc1ccc2c(c1)CCCC2=O | > 4 mM (inactive) |
| CCC(=O)NC(=S)Nc1ccc(C(N)=O)cc1 | > 4 mM (inactive) |
| COC(=O)CC1NC2CCCCC2NC1=O (centres undefined) | > 4 mM (inactive) |
| O=C(Cc1ccc(F)cc1)Nc1ncccn1 | > 4 mM (inactive) |
| O=c1[nH]cnc2nn(-c3ccccc3)nc12 | > 4 mM (inactive) |
| CC1(C)C(=O)[C@@H]2C[C@@]3(O)C4=CC(=O)O[C@@H](c5ccoc5)[C@]4(C)CCC3C(C)(C2=O)[C@H]1CC(=O)O (some centres undefined) | > 4 mM (inactive) |
| CC(=O)c1cc(C(N)=O)c(=S)[nH]c1C | > 4 mM (inactive) |

| Compound | Kd |
| --- | --- |
| Oc1ccccc1N1CCOCC1 | > 4 mM (inactive) |
| CN1C(=O)C2C=CC1C1C(=O)N(c3ccccc3)C(=O)C21 (centres undefined) | > 4 mM (inactive) |
| O=C(Nc1nccs1)c1ccc(=O)[nH]n1 | > 4 mM (inactive) |
| O=c1[nH]cc(S(=O)(=O)Nc2ccccc2)c(=O)[nH]1 | > 4 mM (inactive) |
| COc1ccc(-c2coc3c(OC)c(OC)cc(OC)c3c2=O)cc1 | > 4 mM (inactive) |
| CCn1c2ccccc2c2nn(C)c(=N)nc21 | > 4 mM (inactive) |
| CN1CCn2c1nc(N1CCCCC1)nc2=O | > 4 mM (inactive) |
| Cc1ccc(NC(=O)c2ccccc2)s1 | > 4 mM (inactive) |
| Cc1cc(NC(=O)NCCCSc2nncn2C)no1 | > 4 mM (inactive) |
| NS(=O)(=O)c1ccc(NC(=S)NC2CC2)cc1 | > 4 mM (inactive) |
| CC1=NN2C(=N)CC(=O)N=C2S1 | > 4 mM (inactive) |
| O=C1CSC(=S)N1N1C(=O)C2C3C=CC(C3)C2C1=O (centres undefined) | > 4 mM (inactive) |
| Cc1sc2nc[nH]c(=S)c2c1C | > 4 mM (inactive) |
| O=C1CCC(=O)N1c1cccnc1 | > 4 mM (inactive) |
| O=C(COc1ccccc1O)NCCO | > 4 mM (inactive) |
| Nc1nc(-c2ccc(F)c(F)c2)cs1 | > 4 mM (inactive) |
| O=c1[nH]nc(Cc2ccncc2)c2ccccc12 | > 4 mM (inactive) |
| COc1ccccc1/C=C\C(=O)O | > 4 mM (inactive) |
| COc1cccc(NC(=O)c2ncn[nH]2)c1 | > 4 mM (inactive) |
| Nc1cc(=O)[nH]c(=O)n1Cc1ccco1 | > 4 mM (inactive) |
| Nc1ncnc(NCCO)c1[N+](=O)[O-] | > 4 mM (inactive) |
| CC1SC(=NC(=O)c2ccncc2)NC1=O (centres undefined) | > 4 mM (inactive) |
| O=C(O)c1cc2ccccc2o1 | > 4 mM (inactive) |
| O=C(CSc1ccc(Cl)cc1)N1CCOCC1 | > 4 mM (inactive) |
| Cn1nnc2c(Cl)ncnc21 | > 4 mM (inactive) |
| CCC(C)C(=O)O[C@@H]1C[C@@]2(C)[C@H](c3ccoc3)OC(=O)CC23OC2(C)O[C@]14[C@]1(C)[C@@H](CC(=O)OC)C5(C)CC1(O)[C@](O)(C5OC(=O)C1(C)OC1C)[C@@H](OC(C)=O)[C@]34O2 (some centres undefined) | > 4 mM (inactive) |
| Cn1c(CN2CC(c3ccccc3)CC2=O)n[nH]c1=S (centres undefined) | > 4 mM (inactive) |

| Compound | Kd |
| --- | --- |
| CC1(C)Cc2c(c(-c3ccco3)[nH]c(=O)c2C#N)CO1 | > 4 mM (inactive) |
| Cc1c(N=Cc2ccc[nH]2)c(=O)n(-c2ccccc2)n1C | > 4 mM (inactive) |
| O=C1Nc2ccc(S(=O)(=O)NCCO)c3cccc1c23 | > 4 mM (inactive) |
| Cc1cc(O)c2c(c1O)C(=O)c1c(O)cc(C)c(O)c1C2=O | > 4 mM (inactive) |
| C=C[C@@](C)(O)CCC1C(=C)CCC2[C@@](C)(CO)CCC[C@]12C (some centres undefined) | > 4 mM (inactive) |
| O=c1c(-c2cccs2)[n+]([O-])c2ccccc2n1O | > 4 mM (inactive) |
| Cc1csc2nc(N)nn12 | > 4 mM (inactive) |
| Cc1noc(C)c1C(=O)Nc1sc(C)c(C)c1C#N | > 4 mM (inactive) |
| CCC(=O)n1nc(-c2ccco2)nc1N | > 4 mM (inactive) |
| O=C(Nn1cnnc1)c1ccccc1-c1ccccc1 | > 4 mM (inactive) |
| CSc1nc2nc(C)cc(=O)n2[nH]1 | > 4 mM (inactive) |
| O=C(Oc1ccc2c(c1)CCC2)N1CCOCC1 | > 4 mM (inactive) |
| CCc1cc(=O)[nH]c(SCC(=O)NCCOC)n1 | > 4 mM (inactive) |
| CC1CN(C(=O)c2ccncc2)CC(C)O1 (centres undefined) | > 4 mM (inactive) |
| C[C@@H]1CC[C@@]2(OC1)OC1C(O)C3C4CC[C@H]5C[C@H](O[C@@H]6O[C@H](CO)[C@H](O[C@@H]7O[C@H](CO)[C@@H](O)[C@H](O[C@@H]8OC[C@@H](O)[C@H](O)[C@H]8O)[C@H]7O[C@@H]7O[C@H](CO)[C@H](O)[C@H](O[C@@H]8O[C@H](CO)[C@@H](O)[C@H](O)[C@H]8O)[C@H]7O)[C@H](O)[C@H]6O)[C@H](O)C[C@]5(C)C4CC[C@]3(C)C1[C@@H]2C (some centres undefined) | > 4 mM (inactive) |
| O=C1NCCCC1C(=O)N1CCCCC1 (centres undefined) | > 4 mM (inactive) |
| CCc1ccccc1OCc1nnc(N)s1 | > 4 mM (inactive) |
| O=C(O)CCNc1n[nH]c(=O)[nH]c1=O | > 4 mM (inactive) |
| Nc1nc2ccc(C(=O)O)cc2s1 | > 4 mM (inactive) |
| CC(=O)O[C@H]1CC[C@@]2(C)C(=CCC3C2CC[C@@]2(C)C3CC[C@@H]2C(C)CCCC(C)C)C1 (some centres undefined) | > 4 mM (inactive) |
| CCN1CCC(NC2CCCCNC2=O)CC1 (centres undefined) | > 4 mM (inactive) |
| Cn1c(=O)c2[nH]c(Nc3ccccc3)nc2n(C)c1=O | > 4 mM (inactive) |
| N[C@@H](C(=O)O)[C@@H](O)[C@H](O)[C@H](O)CO | > 4 mM (inactive) |
| CC(CCC(=O)O)[C@H]1CCC2C3C[C@H](O)[C@@H]4C[C@H](O)CC[C@]4(C)C3CC[C@@]21C (some centres undefined) | > 4 mM (inactive) |
| O=C(NC(O)C(=O)c1ccccc1)c1ccco1 (centres undefined) | > 4 mM (inactive) |
